Common to all, as to experiment: inhibition of tumour cell growth, NCI panel, 48 h
The subject of assay [1] is NCI-H522 lung.
The test system of assay [2] is MDA-MB-435.
Assay [3] concerns M14 melanoma.
The test system of assay [4] is TK-10 renal.
Assay [5] has as its system SN12C renal.
The subject of assay [6] is UO-31 renal.
The test system of assay [7] is SF-539 CNS.
The subject of assay [8] is SNB-19 CNS.
The test system of assay [9] is SW-620 colon.
The subject of assay [10] is CAKI-1 renal.
For assay [11], the system named is SK-MEL-5 melanoma.
In assay [12] the test system is UACC-62 melanoma.
Assay [13] relates to CCRF-CEM leukemia.
Assay [14] deals with MDA-N.
For assay [15], the system named is OVCAR-5 ovarian.
The test system of assay [16] is HL-60(TB) leukemia.
Assay [17] deals with HS 578T breast.

The structures appear in SMILES notation.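 Dose response: 5 concentrations. Exposure: 48 h. Format: 96-well plates. Endpoint: linear interpolation; highest concentration if not reached. TGI is the concentration that stops growth completely.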 Some results are limits rather than exact numbers.

`CC(=O)OC1CCn2c1nc1c2C(=O)C=C(N2CC2)C1=O` (configuration not stated): the TGI in assay [1] turned out to be 0.124 µM; in [2], 1.71 µM; in assay [3] it was 0.186 µM; in assay [4], 0.86 µM; in [5] it was 1.86 µM; in assay [6] it was 0.35 µM. Moreover, the TGI was found to be 0.696 µM in assay [7]; 10.8 µM in [8]; 0.146 µM in assay [9]; 0.124 µM in assay [10]; 0.305 µM in assay [11]; 0.214 µM in [12]. Moreover, the TGI came out at 1.17 µM in assay [13], 1.06 µM in assay [14], 2.61 µM in assay [15] and 0.494 µM in assay [16].

On to `CC(=O)Nc1ccc2cc(C#N)c(=O)[nH]c2n1`, for which the TGI in assay [1], in assay [2], in [3], in assay [4], in assay [5] and in [6] was over 100 µM each time. The TGI in [7], in [8], in [9], in assay [10], in [11] and in assay [14] was over 100 µM in each case. Further, in [15], the TGI is over 100 µM.

For the compound `COc1ccc(NCc2cccc3c(=O)c4ccc(Cl)cc4oc23)cc1`, the TGI in [1], in assay [2], in assay [3], in assay [4], in [5] and in assay [6] was over 100 µM in each case. Also, the TGI in [7], in assay [9], in [10], in assay [11], in assay [12] and in [13] was over 100 µM in each case. Also, the TGI in assay [14] and in [15] was over 100 µM each time.

Consider `C=C1[C@@H](OC(C)=O)/C=C/C2C3C(=O)[C@@](C)(OC(C)=O)[C@H]([C@H](OC(C)=O)[C@]4(O)[C@@H](C)C(=O)O[C@H]4[C@H]1Cl)[C@@]23C` (some centres not stated), for which the TGI in [1], in [2], in assay [3], in assay [4], in assay [5] and in assay [6] was over 100 µM each time. In addition, the TGI in assay [8], in [9], in [10], in [17], in [11] and in assay [12] was over 100 µM in each case. Besides, the TGI in assay [13], in [14] and in assay [15] was over 100 µM each time.

Take `CSc1ncc2c(C#N)c3n(C)c4ccccc4n3c(=O)c2n1`: the TGI in assay [2], in assay [3], in assay [4], in assay [5], in [6] and in [7] was over 100 µM each time. Also, the TGI in assay [8], in [9], in assay [10], in assay [17], in [11] and in assay [12] was over 100 µM in each case. Besides, the TGI in assay [13], in assay [15] and in assay [16] was over 100 µM each time.

For the compound `c1ccc(C2(c3cc4ccccc4[nH]3)OCCO2)nc1`, the TGI in [2], in assay [3], in assay [4], in [6], in [7] and in assay [8] was over 100 µM each time. In addition, the TGI in [9], in assay [10], in assay [17], in assay [11], in [12] and in assay [13] was over 100 µM in each case. Further, the TGI in assay [15] and in assay [16] was over 100 µM in each case.

On to `Cc1ccc(N=NC(=O)NNc2ccc(C)cc2Br)c(Br)c1`, for which the TGI in [1] is 55.3 µM; in [2], over 100 µM; in assay [3], 72 µM; in [4], 86.6 µM; in [5], 51.2 µM; in [6], 77.2 µM. Besides, the TGI was over 100 µM in assay [8]; over 100 µM in assay [9]; over 100 µM in assay [10]; 33.9 µM in assay [11]; 36.1 µM in [12]; 21 µM in assay [13]. Also, the TGI in assay [14] was found to be 48.3 µM; in assay [15] it was 68.4 µM; in assay [16], 63 µM.

`S=c1[nH]nc(COc2ccc(Cl)cc2)n1-c1ccccc1`: the TGI in [1] is 23.3 µM; in assay [2], over 100 µM; in [3], over 100 µM; in assay [4], over 100 µM; in assay [5] it was over 100 µM; in assay [6], over 100 µM. Further, the TGI is over 100 µM in assay [7]; over 100 µM in [8]; over 100 µM in assay [9]; 65.8 µM in assay [10]; over 100 µM in assay [12]; over 100 µM in [13]. For the same compound, the TGI in [14], in assay [15] and in assay [16] was over 100 µM in each case.

Turning to `O=S(=O)(Cc1ccccc1)c1nnc(S(=O)(=O)c2ccc(Cl)cc2)s1`, the TGI in assay [1] worked out at 30.8 µM; in assay [2], 90.6 µM; in assay [3], 33.7 µM; in assay [4], 41.9 µM; in assay [5], 46.7 µM; in [6], 44.5 µM. The TGI in assay [7] came to 63.3 µM; in assay [8], 60.2 µM; in assay [9] it was 64.1 µM; in assay [10], 54 µM; in assay [17], 39.8 µM; in assay [11] it was 33.6 µM. The TGI turned out to be 58.7 µM in [12], 33 µM in [14] and 56.8 µM in assay [15].

`Cc1c(CN2CCOCC2)c(CN2CCOCC2)c(C)n1-c1ccc(Cl)cn1`: the TGI in assay [1], in [2], in assay [3], in assay [4], in [5] and in [6] was over 100 µM in each case. The TGI in assay [8], in assay [9], in assay [10], in assay [17], in [11] and in assay [12] was over 100 µM each time. Further, the TGI in assay [13], in [14] and in assay [15] was over 100 µM in each case.

Turning to `COC(=O)C1=C(N)C2=C(N)Oc3ccccc3C2CC1=C(C#N)C#N` (configuration not stated), the TGI in assay [1] is 40.7 µM; in [2], over 100 µM; in assay [3], 43.3 µM; in [4], 52 µM; in assay [5], 92.6 µM; in assay [6], 53.6 µM. Moreover, the TGI in assay [7] is 71.2 µM; in [8], 70.4 µM; in [9], over 100 µM; in [10] it was 72.2 µM; in [17], 97.9 µM; in [11], 52.7 µM. The TGI in assay [12] is 36.3 µM; in assay [13] it was over 100 µM; in assay [15] it was 81.7 µM; in assay [16] it was over 100 µM.

`CCc1n[nH]c(=O)n1-n1c(C)ccc1C`: the TGI in assay [1], in assay [2], in assay [3], in assay [4], in assay [5] and in assay [6] was over 100 µM in each case. In addition, the TGI in assay [8], in assay [9], in assay [10], in assay [17], in [11] and in assay [12] was over 100 µM in each case. The TGI in assay [13], in assay [14] and in assay [15] was over 100 µM throughout.

Take `Cc1ccc(S(=O)(=O)NC(=O)NC(CCCCN)C(=O)O)cc1` (configuration not stated): the TGI in assay [1], in [3], in [4], in [5], in assay [6] and in assay [7] was over 100 µM each time. Besides, the TGI in assay [8], in assay [9], in assay [17], in assay [11], in [12] and in assay [13] was over 100 µM throughout. Moreover, the TGI in assay [14] and in [16] was over 100 µM throughout.

For the compound `COC(=O)CSc1cc(Cl)c(C)cc1S(=O)(=O)Nc1n[nH]c(N)n1`, the TGI in assay [1], in assay [3], in assay [4], in assay [5], in [6] and in assay [7] was over 10 µM each time. The TGI in assay [8], in [9], in [10], in assay [17], in assay [11] and in [13] was over 10 µM each time. The TGI in assay [14], in [15] and in assay [16] was over 10 µM throughout.

For the origin of these results see PubChem BioAssay (NCI).
